Data published in patent US20230107742A1, “SYNERGISTIC EFFECTS, AUGMENTING ANTIMICROBAL EFFECTS OF LIPIDS” (CAPRETTO EHF., priority 2016, published 2023).

Tests used:
[1] = tested on: Enveloped viruses, such as HSV-1, VSV and visna virus; conditions: more active than the free acid; cited from earlier work
[2] = tested on: Streptococcus pneumoniae (ATCC 49619); test: Agar petri dish test, plates wetted with 20 μl formulation, read after 24 hours; conditions: ethanol 5% in mPEG 95% (control)
Description: Formulations according to the invention were tested towards three bacterial strains: Staphylococcus aureus (ATCC 25923), Streptococcus pneumoniae (ATCC 49619), Haemophilus influenza (NCTC 8468). The bacteria were distributed in a thin layer across a petri dish with agar. Two plates were wetted with 20 μl of each formulation. The bacteria were allowed to grow at 37° C. for 24 hours. H. influenzae and S. pneumoniae were grown under CO2, but S. aureus was grown in normal atmosphere.
Readings of results were carried out 24 hours later.

[3] = tested on: Staphylococcus aureus (ATCC 25923); test: as above; conditions: ethanol 5% in mPEG 95% (control)
[4] = tested on: Haemophilus influenza (NCTC 8468); test: as above; type: cell-based; conditions: ethanol 5% in mPEG 95% (control)

| Compound | virucidal activity relative to the corresponding free fatty acid (capric, lauric acid) [1] | effect of ethanol alone against Streptococcus pneumoniae [2] | effect of ethanol alone against Staphylococcus aureus [3] | effect of ethanol alone against Haemophilus influenza [4] |
| --- | --- | --- | --- | --- |
| CCCCCCCCCC(=O)OCC(O)CO (centres unmarked) [Capric acid 1-monoglyceride, capric acid 1-monoglyceride] | 10 fold |  |  |  |
| CCO [ethanol] |  | essentially no effect | essentially no effect | essentially no effect |
| CCCCCCCCCCCC(=O)OCC(O)CO (centres unmarked) [lauric acid 1-monoglyceride] | 10 fold |  |  |  |
